# According to US12622915B2, “Methods of treating PDE IV-mediated diseases or conditions” (Vanda Pharmaceuticals Inc., priority 2020, dated 2026):
# pIC50: −log10 of the molar value.
# Biological target: T1, Phosphodiesterase PDE4B1 (Homo sapiens, UniProt Q07343)
# T1 construct: host or cells: insect Sf9 cells
# Assay: Phosphodiesterase PDE4B1 enzyme assay
# Assay type: biochemical
# Description: Reference standards are run as an integral part of each assay to ensure the validity of the results obtained. Reference Compounds: • Phosphodiesterase PDE10A2 Papaverine • Phosphodiesterase PDE11A4 Dipyridamole • Phosphodiesterase PDE1A MMPX • Phosphodiesterase PDE2A EHNA • Phosphodiesterase PDE3A Cilostamide • Phosphodiesterase PDE4A1A Rolipram • Phosphodiesterase PDE4B1 Rolipram • Phosphodiesterase PDE5A Zaprinast • Phosphodiesterase PDE6 Zaprinast • Phosphodiesterase PDE7A IBMX • Phosphodiesterase PDE7B IBMX • Phosphodiesterase PDE8A1 Dipyridamole • Phosphodiesterase PDE9A2 Zaprinast
# PDE4 assays are performed using methods adapted from the literature. See Richter W, et al. (2001) Identification of inhibitor binding sites of the cAMP-specific phosphodiesterase 4. Cell Signal. 13(4): 287-297; Wang H, et al. (2005) Multiple elements jointly determine inhibitor selectivity of cyclic nucleotide phosphodiesterases 4 and 7. J Biol Chem. 280(35): 30949-30955.
# Phosphodiesterase PDE4A1A; Phosphodiesterase PDE4B1; Phosphodiesterase PDE10A2; Phosphodiesterase PDE11A4; Phosphodiesterase PDE2A; Phosphodiesterase PDE3A; Phosphodiesterase PDE7A; Phosphodiesterase PDE7B; and Phosphodiesterase PDE8A1: • Source: Human recombinant insect Sf9 cells • Substrate: 0.10 μM FAM-cAMP • Vehicle: 1.00% DMSO • Significance Crit.: ≥50% of max stimulation or inhibition • Incubation Buffer: 10 mM Tris-HCl, pH 7.2, 10 mM MgCl2, 0.05% NaN3, 0.1% phosphate-free BSA • Quantitation Method: Quantitation of Fluorescein-AMP-IMAP • Pre-Incub. Time/Temp: 15 minutes @25° C. • Incubation Time/Temp: 30 minutes @25° C.
# (§1) IC50 values are determined by a non-linear, least squares regression analysis using MathIQ™ (ID Business Solutions Ltd., UK). Where inhibition constants (Ki) are presented, the Ki values are calculated using the equation of Cheng and Prusoff (Cheng, Y., Prusoff, W. H., Biochem. Pharmacol. 22:3099-3108, 1973) using the observed IC50 of the tested compound, the concentration of radioligand employed in the assay, and the historical values for the KD of the ligand. Where presented, the Hill coefficient (nH), defining the slope of the competitive binding curve, is calculated using MathIQ™. […] Where IC50, Ki, and/or nH data are presented without Standard Error of the Mean (SEM), data are insufficient to be quantitative, and the values presented (Ki, IC50, nH) are interpreted with caution.
# Reference standards are run as an integral part of each assay to ensure the validity of the results obtained. Rolipram is used for the PDE4 assays.
# Phosphodiesterase PDE4B1: • Source: Human recombinant insect Sf9 cells • Substrate: 0.10 μM FAM-cAMP • Vehicle: 1.00% DMSO • Significance Crit.: ≥50% of max stimulation or inhibition • Incubation Buffer: 10 mM Tris-HCl, pH 7.2, 10 mM MgCl2, 0.05% NaN3, 0.1% phosphate-free BSA • Quantitation Method: Quantitation of Fluorescein-AMP-IMAP • Pre-Incub. Time/Temp: 15 minutes @25° C. • Incubation Time/Temp: 30 minutes @25° C.
# as §1, with “W.H.,” for “W. H.,”
# T1 sequence (Q07343 whole entry): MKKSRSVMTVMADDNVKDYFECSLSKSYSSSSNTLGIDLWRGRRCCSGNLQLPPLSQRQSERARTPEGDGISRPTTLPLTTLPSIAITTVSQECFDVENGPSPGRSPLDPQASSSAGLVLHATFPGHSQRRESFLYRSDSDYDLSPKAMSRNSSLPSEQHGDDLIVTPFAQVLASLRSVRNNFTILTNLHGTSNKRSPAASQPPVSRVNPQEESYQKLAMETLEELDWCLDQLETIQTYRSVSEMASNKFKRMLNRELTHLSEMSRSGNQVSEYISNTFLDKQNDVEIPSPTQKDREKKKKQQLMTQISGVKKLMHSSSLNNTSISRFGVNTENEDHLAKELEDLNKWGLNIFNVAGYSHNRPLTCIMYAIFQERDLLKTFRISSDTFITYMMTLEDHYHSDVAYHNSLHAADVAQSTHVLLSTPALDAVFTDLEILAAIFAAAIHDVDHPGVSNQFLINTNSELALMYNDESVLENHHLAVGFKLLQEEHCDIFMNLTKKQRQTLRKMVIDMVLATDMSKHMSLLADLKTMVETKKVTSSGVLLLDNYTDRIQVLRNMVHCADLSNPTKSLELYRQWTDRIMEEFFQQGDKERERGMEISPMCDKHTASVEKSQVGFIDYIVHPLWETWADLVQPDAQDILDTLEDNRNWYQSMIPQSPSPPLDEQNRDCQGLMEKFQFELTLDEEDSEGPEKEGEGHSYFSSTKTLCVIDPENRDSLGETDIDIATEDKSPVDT
compound,measurement,setting,value
"CNc1nc(Nc2ccccc2)nc(OCC(F)(F)C(F)F)n1 [compound of Formula (I), N^2-methyl-N^4-phenyl-6-(2,2,3,3-tetrafluoropropoxy)-1,3,5-triazine-2,4-diamine]",inhibition at 0.01 µM,"10 nM, N=2, Example 4",17%
same,inhibition at 0.03 µM,"0.03 μM, N=2, Example 4",34%
same,inhibition at 0.1 µM,"0.1 μM, N=2, Example 4",49%
same,inhibition at 0.3 µM,"0.3 μM, N=2, Example 4",70%
same,inhibition at 1 µM,"1 μM, N=2, Example 4",83%
same,inhibition at 3 µM,"3 μM, N=2, Example 4",91%
same,inhibition at 10 µM,"N=2, Example 3",96%
same,inhibition at 10 µM,"N=2, Example 4",94%
same,pIC50,Example 4,7.03
